This assay concerns the target T1, human oxytocin receptor (Homo sapiens, UniProt P30559).
T1 construct: host or cells: CHO cells, stably transfected (pcDNA3.1 vector); membranes
T1 sequence (P30559 1-389): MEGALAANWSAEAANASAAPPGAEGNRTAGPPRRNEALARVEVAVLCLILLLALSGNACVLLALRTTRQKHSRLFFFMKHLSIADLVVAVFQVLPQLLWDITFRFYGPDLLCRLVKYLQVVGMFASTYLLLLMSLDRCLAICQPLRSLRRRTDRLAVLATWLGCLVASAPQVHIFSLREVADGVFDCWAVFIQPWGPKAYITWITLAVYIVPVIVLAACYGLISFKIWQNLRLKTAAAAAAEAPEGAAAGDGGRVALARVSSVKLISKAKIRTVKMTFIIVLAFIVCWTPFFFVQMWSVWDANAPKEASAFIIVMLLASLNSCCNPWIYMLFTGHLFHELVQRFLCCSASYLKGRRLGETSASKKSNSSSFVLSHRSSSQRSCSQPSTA
As to the kind of experiment: Oxytocin binding in CHO cell membranes expressing human oxytocin receptors ([3H]oxytocin radioligand). Conditions: for inhibition at 0.1 µM / OT % inhibition @ 100 nM: 100 nM, value without parentheses; for inhibition at 0.1 µM: read-out: OT % inhibition @ 100 nM; for IC50: value in parentheses, read-out: OT (IC50). The source says:
Oxytocin binding in Chinese Hamster Ovary cell membranes expressing human oxytocin receptors
Chinese Hamster Ovary (CHO) cells stably transfected with the human oxytocin (cf. T. Kimura et al., U.S. Pat. No. 5,466,584 (1995) to Rohto Pharmaceutical Co. Ltd., Osaka, Japan) were obtained from Dr. M. Thibonnier, Case Western Reserve University School of Medicine, Cleveland, Ohio.
A. Passaging and Amplification of Cells:
CHO cells transfected with the human oxytocin receptors obtained from M. Thibonnier (pcDNA3.1 vector) are allowed to grow to confluency (approx. >90%) in T-150 flasks under sterile conditions, in a cell culture medium of F-12 Nutrient Mixture (HAM) with L-glutamine (Gibco Cat. #11765-054) containing 15 mM HEPES (Gibco Cat. #15630-080), 1% antibiotic/antimycotic (add 5 mL 100×, Gibco Cat. #15240-062 per 500 mL F-12), 400 μg/mL of Geneticin (add 4 mL of 50 mg/mL per 500 mL F-12) and 10% Fetal Bovine Serum (Qualified, heat inactivated, Gibco Cat. #16140-063). The medium is removed by aspiration and the cells are washed with 10 mL of Hank's Balanced Salt solution (Gibco Cat. #14175-095). The salt solution is removed by aspiration and the cells trypsinized with 5 mL of trypsin-EDTA (0.05% trypsin, 0.53 mM EDTA-4Na, Gibco Cat. #25300-070) for 1 min The trypsin is removed by aspiration and the cells dislodged by tapping. Cell Culture medium (e.g. 30 mL for 1:30 split) is immediately added and mixed well to inactivate trypsin. 1 mL of detached cells is added to new culture flasks containing fresh Cell Culture medium (e.g. into 25 mL per T-150 flask), and mixed gently. The cells are incubated at 37° C. in 5% CO2. The medium is changed at 3 to 4 days interval (or as appropriate). The cells grow to confluency (approx. >75%-95%) within 7-8 days. All steps are done under sterile conditions.
The cells are washed twice gently with Hank's Balanced Salt solution (eg, use 10 mL per T-150 flask). The excess is removed and the cells bathed for 15-30 min. in an enzyme-free Cell Dissociation Buffer (eg, use 8 mL Hank's Based, Gibco Cat. #13150-016 per T-150 flask) until cells are loosened. The contents are transferred to centrifuge tubes (50 mL size) kept in ice bath. All subsequent steps are done at 4° C. The tubes are centrifuged at 300×g for 15 min (1380 rpm on SORVAL, Model RT6000D, using rotor for 50 mL tubes). The supernatant is discarded and the cells suspended in homogenizing buffer (10 mM Tris-HCl containing 0.25 M sucrose and 1 mM EDTA, pH 7.4) ensuring that the volume of the buffer is about ten times the volume of the cell pellet. The cells are pooled into a centrifuge tube (50 mL) and homogenized with Polytron at setting 6 for 10 sec. The homogenate is transferred into a Potter-Elvjehm homogenizer and homogenized with 3 strokes. The homogenate is centrifuged at 1500×g for 10 min at 4° C. (3100 rpm using SORVAL, model RT6000D, using rotor for 50 mL tubes). The pellet is discarded. The supernatant is centrifuged at 100,000×g for 60 min. at 4° C. (Beckman L8-80M ultracentrifuge; spin at 37,500 rpm with rotor type 70 Ti for 50 mL tubes; 38,000 rpm with type 80Ti for 15 mL tubes; or 35,800 rpm with rotor type 45Ti). The supernantant is discarded and the pellet suspended in 3 to 4 mL of Tris buffer (50 mM TRIS-HCl, pH 7.4). The protein content is estimated by the Bradford or Lowry method. The volume of the membrane suspension is adjusted with the membrane buffer (50 mM Tris-HCl containing 0.1% BSA and 0.1 mM PMSF) to give 3.0 mg/mL (or as appropriate) of protein. The membranes are aliquoted and stored at −70° C.
C. Radioligand Binding Assay:
In wells of a 96-well format microtiter plate, is added 90, 110 or 130 μL (to make up a final volume of 200 μL) of assay buffer containing 50 mM of Tris-HCl (pH 7.4), […], 1 mg % aprotinin, 1 mg % leupeptin, 2 mg % 1,10-phenanthroline, 10 mg % trypsin inhibitor, and 0.1 mM PMSF. The inhibitors are added on the day of the experiment. […]

Turning to `Cc1cc(C(=O)N2Cc3ccc(C(=O)N[C@H](CO)C(=O)O)n3Cc3ccccc32)ccc1C1=CCCCC1` [Example 14, (2R)-2-{[10-(4-Cyclohex-1-en-1-yl-3-methyl-benzoyl)-10,11-dihydro-5H-pyrrolo[2,1-c][1,4]benzodiazepine-3-carbonyl]-amino}-3-hydroxy-propionic acid], the inhibition (in general, the share of the control response that was lost under treatment) at 0.1 µM came to 50%.

Regarding `Cc1cc(C(=O)N2Cc3ccc(C(=O)N(CCO)CCO)n3Cc3ccccc32)ccc1C1=CCCc2ccccc21` [Example 16, {10-[4-(3,4-Dihydro-naphthalen-1-yl)-3-methyl-benzoyl]-10,11-dihydro-5H-pyrrolo[2,1-c][1,4]benzodiazepin-3-yl}-3-carboxylic acid bis-(2-hydroxy-ethyl)-amide], the “OT % inhibition @ 100 nM” value is given as 98%.

Turning to `Cc1cc(C(=O)N2Cc3ccc(C(=O)N(C)C[C@H](O)[C@H]4OC(=O)O[C@@H]4[C@H](O)CO)n3Cc3ccccc32)ccc1C1=CCCCC1` [Example 6, 10-(4-Cyclohex-1-en-1-yl-3-methylbenzoyl)-N-((2S)-2-{(4R,5R)-5-[(1R)-1,2-dihydroxyethyl]-2-oxo-1,3-dioxolan-4-yl}-2-hydroxyethyl)-N-methyl-10,11-dihydro-5H-pyrrolo[2,1-c][1,4]benzodiazepine-3-carboxamide], the IC50 (in general, the concentration that gives 50% inhibition) was found to be 0.96 nM.

`Cc1cc(C(=O)N2Cc3ccc(C(=O)C(Cl)(Cl)Cl)n3Cc3ccccc32)ccc1C1=CCCCC1` [Example 5D, 2,2,2-Trichloro-1-[10-(4-cyclohex-1-en-1-yl-3-methyl-benzoyl)-10,11-dihydro-5H-pyrrolo[2,1-c][1,4]benzodiazepin-3-yl]-methanone]: the “OT % inhibition @ 100 nM” value stood at 10%.

Take `COc1cc(C2=CCCCC2)c(Cl)cc1C(=O)N1Cc2ccc(C(=O)N(C)C[C@@H]3OC(=O)O[C@H]3[C@H](O)[C@H]3COC(=O)O3)n2Cc2ccccc21` [Example 3, 10-(5-Chloro-4-cyclohex-1-en-1-yl-2-methoxybenzoyl)-N-[((4S,5S)-5-{(R)-hydroxy[(4R)-2-oxo-1,3-dioxolan-4-yl]methyl}-2-oxo-1,3-dioxolan-4-yl)methyl]-N-methyl-10,11-dihydro-5H-pyrrolo[2,1-c][1,4]benzodiazepine-3-carboxamide]: the IC50 was determined as 4.92 nM.

Take `COc1cc(C2=CCCCC2)c(Cl)cc1C(=O)N1Cc2ccc(C(=O)N(C)C[C@H](O)[C@@H](O)[C@H](O)[C@H](O)CO)n2Cc2ccccc21` [Example 1, 1-[[[10-[5-Chloro-4-(1-cyclohex-1-en-1-yl)-2-methoxybenzoyl]-10,11-dihydro-5H-pyrrolo[2,1-c][1,4]benzodiazepin-3-yl]carbonyl]methylamino]-1-deoxy-D-glucitol]: the IC50 was 0.98 nM.

For `Cc1cc(C(=O)N2Cc3ccc(C(=O)O)n3Cc3ccccc32)ccc1C1=CCCCC1` [Example 5E, 10-(4-Cyclohex-1-en-1-yl-3-methyl-benzoyl)-10,11-dihydro-5H-pyrrolo[2,1-c][1,4]benzodiazepine-3-carboxylic acid], the inhibition at 0.1 µM is 26%.

Consider `COC[C@@H](OC)[C@@H](OC)[C@H](OC)[C@H](CN(C)C(=O)c1ccc2n1Cc1ccccc1N(C(=O)c1ccc(C3=CCCCC3)c(C)c1)C2)OC` [Example 8, 10-(4-Cyclohex-1-en-1-yl-3-methylbenzoyl)-N-methyl-N-[(2S,3R,4R,5R)-2,3,4,5,6-pentamethoxyhexyl]-10,11-dihydro-5H-pyrrolo[2,1-c][1,4]benzodiazepine-3-carboxamide], for which the IC50 worked out at 13 nM.

Turning to `COC(=O)[C@H](CO)NC(=O)c1ccc2n1Cc1ccccc1N(C(=O)c1ccc(C3=CCCCC3)c(C)c1)C2` [Example 11, (2S)-2-{[10-(4-Cyclohex-1-en-1-yl-3-methyl-benzoyl)-10,11-dihydro-5H-pyrrolo[2,1-c][1,4]benzodiazepine-3-carbonyl]-amino}-3-hydroxy-propionic acid methyl ester], the IC50 amounted to 76.2 nM.

For `Cc1cc(C(=O)N2Cc3ccc(C(=O)N[C@@H](CO)C(=O)O)n3Cc3ccccc32)ccc1C1=CCCCC1` [Example 13, (2S)-2-{[10-(4-Cyclohex-1-en-1-yl-3-methyl-benzoyl)-10,11-dihydro-5H-pyrrolo[2,1-c][1,4]benzodiazepine-3-carbonyl]-amino}-3-hydroxy-propionic acid], the inhibition at 0.1 µM came out at 63%.

Turning to `Cc1cc(C(=O)N2Cc3ccc(C(=O)N(C)C[C@H](O)[C@@H](O)[C@H](O)[C@H](O)CO)n3Cc3ccccc32)ccc1C1=CCCc2ccccc21` [Example 15], the IC50 was found to be 3.19 nM.

Consider `COC[C@@H](OC)[C@@H](OC)[C@H](OC)[C@H](CN(C)C(=O)c1ccc2n1Cc1ccccc1N(C(=O)c1cc(Cl)c(C3=CCCCC3)cc1OC)C2)OC` [Example 2, 10-(5-Chloro-4-cyclohex-1-en-1-yl-2-methoxybenzoyl)-N-methyl-N-[(2S,3R,4R,5R)-2,3,4,5,6-pentamethoxyhexyl]-10,11-dihydro-5H-pyrrolo[2,1-c][1,4]benzodiazepine-3-carboxamide], for which the IC50 amounted to 19.6 nM.

With `COc1cc(C2=CCCCC2)c(Cl)cc1C(=O)N1Cc2ccc(C(=O)O)n2Cc2ccccc21` [Example 1G, 10-(5-Chloro-4-cyclohex-1-en-1-yl-2-methoxybenzoyl)-10,11-dihydro-5H-pyrrolo[2,1-c][1,4]benzodiazepine-3-carboxylic acid], the inhibition at 0.1 µM is 21%.

For `COC(=O)[C@@H](CO)NC(=O)c1ccc2n1Cc1ccccc1N(C(=O)c1ccc(C3=CCCCC3)c(C)c1)C2` [Example 12, (2R)-2-{[10-(4-Cyclohex-1-en-1-yl-3-methyl-benzoyl)-10,11-dihydro-5H-pyrrolo[2,1-c][1,4]benzodiazepine-3-carbonyl]-amino}-3-hydroxy-propionic acid methyl ester], the IC50 was 47.1 nM.

Regarding `Cc1cc(C(=O)N2Cc3ccc(C(=O)O)n3Cc3ccccc32)ccc1C1=CCCc2ccccc21` [Example 15B, 10-[4-(3,4-Dihydro-naphthalen-1-yl)-3-methyl-benzoyl]-10,11-dihydro-5H-pyrrolo[2,1-c][1,4]benzodiazepine-3-carboxylic acid], the inhibition at 0.1 µM turned out to be 19%.

Turning to `Cc1cc(C(=O)N2Cc3ccc(C(=O)N[C@@H](Cc4ccc(O)cc4)C(=O)O)n3Cc3ccccc32)ccc1C1=CCCCC1` [Example 10], the “OT % inhibition @ 100 nM” value is recorded as 54%.

Source of the values: patent US6977254B2, “Hydroxy cyclohexenyl phenyl carboxamides tocolytic oxytocin receptor antagonists” (Wyeth, priority 2001, dated 2005).
